{"source": "patent EP4548971A1", "about": "“1,4-BENZOTHIAZEPINES AND RELATED COMPOUNDS WITH CYCLOPROPANOL GROUPS AS MULTI-TARGETED DRUGS” (Georg-August-Universität Göttingen Stiftung Öffentlichen …, priority 2023, dated 2025)", "type_in_all_cases": "cell-based", "key": {"WT RyR2": {"target": "T1, WT RyR2 (Mus musculus, UniProt E9Q401)", "T1 construct": "expressed in transfected cells", "T1 sequence (E9Q401 whole entry)": "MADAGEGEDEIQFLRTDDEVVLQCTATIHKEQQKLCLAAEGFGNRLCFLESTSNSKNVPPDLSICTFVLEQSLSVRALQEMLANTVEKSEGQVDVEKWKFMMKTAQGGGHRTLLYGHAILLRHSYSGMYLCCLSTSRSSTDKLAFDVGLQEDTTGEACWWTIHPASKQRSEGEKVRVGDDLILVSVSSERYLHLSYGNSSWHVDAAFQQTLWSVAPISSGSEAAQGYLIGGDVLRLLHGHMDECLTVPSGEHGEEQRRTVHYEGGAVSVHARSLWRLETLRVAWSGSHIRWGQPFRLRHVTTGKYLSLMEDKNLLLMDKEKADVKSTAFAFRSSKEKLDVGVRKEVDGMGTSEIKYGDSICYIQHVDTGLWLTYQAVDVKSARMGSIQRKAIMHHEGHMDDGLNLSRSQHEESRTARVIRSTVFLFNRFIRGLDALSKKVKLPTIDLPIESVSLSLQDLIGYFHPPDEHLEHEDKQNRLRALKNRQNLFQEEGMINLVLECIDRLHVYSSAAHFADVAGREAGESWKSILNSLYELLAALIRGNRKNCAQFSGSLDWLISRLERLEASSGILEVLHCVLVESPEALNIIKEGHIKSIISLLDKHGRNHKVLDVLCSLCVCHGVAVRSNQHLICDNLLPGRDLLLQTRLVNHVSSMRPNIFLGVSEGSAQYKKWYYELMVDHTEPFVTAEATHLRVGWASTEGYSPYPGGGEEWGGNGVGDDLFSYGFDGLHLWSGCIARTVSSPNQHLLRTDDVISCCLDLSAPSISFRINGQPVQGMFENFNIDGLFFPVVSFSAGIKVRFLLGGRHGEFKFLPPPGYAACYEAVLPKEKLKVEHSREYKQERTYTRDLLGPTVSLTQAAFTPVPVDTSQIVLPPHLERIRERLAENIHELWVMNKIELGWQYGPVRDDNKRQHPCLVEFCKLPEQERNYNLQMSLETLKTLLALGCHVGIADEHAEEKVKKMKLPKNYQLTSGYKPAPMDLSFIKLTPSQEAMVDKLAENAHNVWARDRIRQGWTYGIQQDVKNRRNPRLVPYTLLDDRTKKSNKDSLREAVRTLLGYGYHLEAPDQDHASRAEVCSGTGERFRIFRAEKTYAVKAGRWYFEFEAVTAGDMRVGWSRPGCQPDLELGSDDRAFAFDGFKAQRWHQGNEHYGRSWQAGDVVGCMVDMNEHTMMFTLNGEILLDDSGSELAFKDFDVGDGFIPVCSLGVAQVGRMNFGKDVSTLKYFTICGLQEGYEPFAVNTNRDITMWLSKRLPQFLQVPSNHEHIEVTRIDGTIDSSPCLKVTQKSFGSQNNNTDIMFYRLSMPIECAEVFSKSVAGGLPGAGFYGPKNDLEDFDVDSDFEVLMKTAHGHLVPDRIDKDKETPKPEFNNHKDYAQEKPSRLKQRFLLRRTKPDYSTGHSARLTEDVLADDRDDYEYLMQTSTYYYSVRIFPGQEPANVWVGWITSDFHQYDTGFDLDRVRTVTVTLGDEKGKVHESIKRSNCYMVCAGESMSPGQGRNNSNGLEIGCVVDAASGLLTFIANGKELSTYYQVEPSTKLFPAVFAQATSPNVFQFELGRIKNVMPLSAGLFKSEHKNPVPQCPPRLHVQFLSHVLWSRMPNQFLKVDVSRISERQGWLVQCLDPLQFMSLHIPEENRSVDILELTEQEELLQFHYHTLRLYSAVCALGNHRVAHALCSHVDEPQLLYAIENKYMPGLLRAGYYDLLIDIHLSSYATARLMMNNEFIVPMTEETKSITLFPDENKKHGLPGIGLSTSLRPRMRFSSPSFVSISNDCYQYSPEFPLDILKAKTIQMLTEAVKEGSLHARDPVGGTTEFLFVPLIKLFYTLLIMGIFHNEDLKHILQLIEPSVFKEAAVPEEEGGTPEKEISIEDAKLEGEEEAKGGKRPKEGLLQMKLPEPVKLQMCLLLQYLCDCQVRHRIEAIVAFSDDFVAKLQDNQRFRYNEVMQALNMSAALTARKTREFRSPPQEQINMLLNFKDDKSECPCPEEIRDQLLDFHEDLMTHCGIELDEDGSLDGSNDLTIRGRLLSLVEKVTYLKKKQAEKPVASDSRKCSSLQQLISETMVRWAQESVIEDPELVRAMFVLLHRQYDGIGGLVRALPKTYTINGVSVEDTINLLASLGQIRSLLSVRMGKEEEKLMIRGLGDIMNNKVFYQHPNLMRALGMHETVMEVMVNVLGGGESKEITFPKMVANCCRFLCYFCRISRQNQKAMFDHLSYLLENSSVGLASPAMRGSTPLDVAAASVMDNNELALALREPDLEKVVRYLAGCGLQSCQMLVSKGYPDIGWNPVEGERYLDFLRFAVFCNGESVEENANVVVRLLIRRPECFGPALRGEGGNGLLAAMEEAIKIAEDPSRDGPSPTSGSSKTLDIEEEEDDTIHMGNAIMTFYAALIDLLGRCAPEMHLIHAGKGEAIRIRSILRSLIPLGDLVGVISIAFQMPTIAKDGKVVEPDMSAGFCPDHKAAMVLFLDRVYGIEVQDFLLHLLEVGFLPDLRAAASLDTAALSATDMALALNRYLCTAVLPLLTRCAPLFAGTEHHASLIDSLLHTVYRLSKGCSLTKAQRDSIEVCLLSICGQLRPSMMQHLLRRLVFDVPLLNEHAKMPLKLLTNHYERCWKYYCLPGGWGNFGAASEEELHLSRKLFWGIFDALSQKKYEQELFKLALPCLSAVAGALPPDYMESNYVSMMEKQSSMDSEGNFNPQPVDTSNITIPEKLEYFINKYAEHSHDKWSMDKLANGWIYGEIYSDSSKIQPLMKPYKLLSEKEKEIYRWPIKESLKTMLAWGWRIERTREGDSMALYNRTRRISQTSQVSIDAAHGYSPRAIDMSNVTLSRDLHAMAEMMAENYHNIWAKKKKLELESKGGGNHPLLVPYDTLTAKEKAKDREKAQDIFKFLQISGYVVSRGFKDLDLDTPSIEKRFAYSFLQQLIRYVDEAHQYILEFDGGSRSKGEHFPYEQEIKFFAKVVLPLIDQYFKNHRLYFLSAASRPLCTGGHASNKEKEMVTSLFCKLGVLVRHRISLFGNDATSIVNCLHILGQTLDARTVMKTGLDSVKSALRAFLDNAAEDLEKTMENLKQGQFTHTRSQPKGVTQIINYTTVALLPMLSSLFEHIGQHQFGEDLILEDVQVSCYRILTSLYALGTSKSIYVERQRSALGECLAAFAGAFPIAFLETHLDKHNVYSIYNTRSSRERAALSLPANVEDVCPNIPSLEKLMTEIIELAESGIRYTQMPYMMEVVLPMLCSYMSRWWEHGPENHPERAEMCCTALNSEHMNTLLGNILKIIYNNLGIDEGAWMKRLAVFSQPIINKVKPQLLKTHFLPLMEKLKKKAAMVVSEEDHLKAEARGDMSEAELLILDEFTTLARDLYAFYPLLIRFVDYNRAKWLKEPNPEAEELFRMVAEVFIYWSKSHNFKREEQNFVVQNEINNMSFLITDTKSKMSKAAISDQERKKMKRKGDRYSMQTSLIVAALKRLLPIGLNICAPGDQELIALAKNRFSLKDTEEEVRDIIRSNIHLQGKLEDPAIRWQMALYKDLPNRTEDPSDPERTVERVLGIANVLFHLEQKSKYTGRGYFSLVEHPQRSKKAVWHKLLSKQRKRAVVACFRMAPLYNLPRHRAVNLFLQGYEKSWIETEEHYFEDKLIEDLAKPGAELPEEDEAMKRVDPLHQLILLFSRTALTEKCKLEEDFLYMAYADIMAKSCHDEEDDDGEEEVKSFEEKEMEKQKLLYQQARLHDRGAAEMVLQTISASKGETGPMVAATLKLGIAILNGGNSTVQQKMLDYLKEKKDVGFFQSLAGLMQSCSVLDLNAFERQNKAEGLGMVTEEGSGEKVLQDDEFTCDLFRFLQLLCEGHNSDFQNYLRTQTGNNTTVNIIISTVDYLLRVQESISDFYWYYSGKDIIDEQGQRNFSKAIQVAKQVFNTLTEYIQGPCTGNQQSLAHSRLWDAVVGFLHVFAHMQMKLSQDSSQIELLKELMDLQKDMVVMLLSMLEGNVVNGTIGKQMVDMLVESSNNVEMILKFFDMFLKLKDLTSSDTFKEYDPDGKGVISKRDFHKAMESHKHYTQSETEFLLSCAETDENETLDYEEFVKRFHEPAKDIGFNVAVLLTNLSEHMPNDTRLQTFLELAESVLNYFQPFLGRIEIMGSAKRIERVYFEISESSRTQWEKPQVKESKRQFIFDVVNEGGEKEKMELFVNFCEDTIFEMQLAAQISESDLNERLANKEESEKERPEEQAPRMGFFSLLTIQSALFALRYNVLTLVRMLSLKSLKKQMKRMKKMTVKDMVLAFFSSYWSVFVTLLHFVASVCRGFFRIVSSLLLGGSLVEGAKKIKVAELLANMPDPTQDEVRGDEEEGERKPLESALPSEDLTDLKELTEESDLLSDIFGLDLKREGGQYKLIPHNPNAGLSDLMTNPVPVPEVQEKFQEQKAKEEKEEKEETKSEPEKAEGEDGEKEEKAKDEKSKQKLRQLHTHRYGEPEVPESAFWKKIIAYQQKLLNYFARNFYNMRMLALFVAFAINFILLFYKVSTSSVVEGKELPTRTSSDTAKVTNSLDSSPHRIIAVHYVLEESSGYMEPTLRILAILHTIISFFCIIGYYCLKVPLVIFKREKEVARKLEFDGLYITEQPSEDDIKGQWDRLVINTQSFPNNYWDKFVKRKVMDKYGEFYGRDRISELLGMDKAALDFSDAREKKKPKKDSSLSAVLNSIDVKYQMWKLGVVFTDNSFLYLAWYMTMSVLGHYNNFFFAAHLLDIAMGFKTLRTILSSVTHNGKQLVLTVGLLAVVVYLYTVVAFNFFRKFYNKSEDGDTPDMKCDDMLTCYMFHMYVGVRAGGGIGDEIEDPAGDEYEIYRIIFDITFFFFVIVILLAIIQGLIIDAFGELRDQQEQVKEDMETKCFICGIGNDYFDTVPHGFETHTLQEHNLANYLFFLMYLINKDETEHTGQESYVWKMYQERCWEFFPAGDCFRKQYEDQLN", "assay": "Time-lapse [Ca2+]ER assay (RyR2 R-CEPIA1er assay) in HEK-293 cells", "conditions": "25 µM, vs. 0.1 v/v% DMSO", "protocol": "HEK-293 cells stably expressing R-CEPIA1er and WT RyR2 (generous gift from Takashi Murayama, Juntendo University School of Medicine, Tokyo) were cultured in Dulbecco's Modified Eagle medium (DMEM, Thermo Fisher Scientific, Darmstadt, Germany) supplemented with 10% fetal bovine serum (FBS, Thermo Fisher Scientific, Darmstadt, Germany), 0.9% Penicillin/Streptomycin (Merck KGaA, Darmstadt, Germany), 15ug/mL Blasticidine (Invivogen, Toulouse, France), 100 µg/mL Hygromycin (Merck KGaA, Darmstadt, Germany) and 400 µg/mL G418 (Thermo Fisher Scientific, Darmstadt, Germany) in a humidified 5% COz incubator at 37 °C. To induce the expression of WT RyR2 in the endoplasmic reticulum (ER), 2 µg/mL Doxycycline (Merck KGaA, Darmstadt, Germany) was added 24 h before experiments.\nThe fluorescent plate reader [Ca^2+]ER assay was performed according to the slightly modified protocol of Murayama & Kurebayashi [T. Murayama, N. Kurebayashi, Assays for Modulators of Ryanodine Receptor (RyR)/Ca(2+) Release Channel Activity for Drug Discovery for Skeletal Muscle and Heart Diseases. Curr. Protoc. […] After the cells were inducted with Doxycycline for 24 h, changes in ER calcium concentrations [Ca^2+]ER were measured on a multiwell plate reader TECAN Spark 20M at 37 °C. The 1000 × stock solutions of the test compounds were prepared in DMSO. Briefly, the culture medium was removed and 100 µl of Tyrode's solution containing 2 mM CaCl2 was added to the cells. The time courses were recorded in each well. Fluorescence was evoked by 560 nm excitation wavelength and collected in a bottom-read mode at 610 nm. Data was recorded every 10 s, exposure - 20 flashes, excitation bandwidth - 20 nm, emission bandwidth - 20 nm. 100 µl of 0 - 100 µM solution of test compound in Tyrode's solution containing 2 mM CaCh was injected in each well (speed 100 µl/s) at the 90 s time point. […] The 0.1 v/v% DMSO and 2 mM CaCh Tyrode's solution was used as a control.\nThe dose response curves were calculated using the software package GraphPad Prism version 8.3.1. (GraphPad Software, Inc.). All data are presented as mean ± S.D. in 3 independent experiments. Y=Bottom + (Top-Bottom)/(1+10^((LogEC50-X)*HillSlope)) was used where HillSlope describes the steepness of the curve, Top and Bottom are plateaus in the units of the Y axis.\nThe inventors measured changes in Ca^2+ levels in the endoplasmic reticulum (ER) of HEK-293 cells with inducible expression of wild-type RyR2 (WT RyR2) [T. Murayama, N. Kurebayashi, M. Ishigami-Yuasa, S. Mori, Y. Suzuki, R. Akima, H. Ogawa, J. Suzuki, K. Kanemaru, H. Oyamada, Y. Kiuchi, M. Iino, H. Kagechika, T. Sakurai, Efficient High-Throughput Screening by Endoplasmic Reticulum Ca(2+) Measurement to Identify Inhibitors of Ryanodine Receptor Ca(2+)-Release Channels. […] The cells additionally stably express the Ca^2+ fluorescence indicator R-CEPIA1er, which is a genetically encoded sensor protein of Ca^2+ in the ER ([Ca^2+]ER) [T. Murayama, N. Kurebayashi, Assays for Modulators of Ryanodine Receptor (RyR)/Ca(2+) Release Channel Activity for Drug Discovery for Skeletal Muscle and Heart Diseases. Curr. Protoc.\nThe fluorescence ratio F/F0 was calculated, where F0 - is the average fluorescence for the first 90 s, F - is the average fluorescence for the last 100 s, and normalized."}, "[1]": {"system": "saponin-permeabilized ventricular cardiomyocytes (sp-vCM) from WT mice", "assay": "Ca2+ wave decay in saponin-permeabilized ventricular cardiomyocytes, WT mice", "conditions": "10 µM, result in words", "source_text": "(§1) • Figure 1: Synthesis scheme showing the synthesis of multifunctional compounds with cyclopropanol residues based on 1,4 -benzothiazepines. The respective reaction conditions (a) to (i) are as follows: (a) Jones reagent, aceton; (b) H2SO4, EtOH; (c) EtMgBr, Ti(OiPr)4, EtzO; (d) t-BuMe2SiOSO2CF3, 2,6-lutidine, DCM; (e) Hz, Pd/C, THF; (f) Dess-Martin reagent, DCM; (g) K2CO3, 1,4-dioxane; (h) N2H4*H2O, EtOH; (i) Na(CH3COO)3BH, 1,2-dichloroethane; (j) NaH, DMF; (k) aq. HF (55%), MeCN or 1 M n-Bu4NF in THF or KF, Et3N*HCl, MeOH. m,n = 2-8. • Figure 2: Synthesis scheme showing the synthesis of multifunctional compounds with cyclopropanol residues based on the \"open\" analogs 1,4 -benzothiazepines (i.e. 3-[(4-methoxyphenyl)oxy]-and 3-[(4-methoxyphenylthio)]propane-1-amine derivatives). […] Values represent the mean ± S.D., *** P < 0.0005, **** P < 0.0001 vs. DMSO by unpaired t test; n = 6 - 28. • Figure 6: Time-lapse fluorescence measurements using TECAN Spark 20M plate reader with HEK293 cells expressing WT RyR2 and R-CEPIA1er indicator. […] Fluorescence ratio F/F0, where F0 - average fluorescence signal for the first 90 seconds, F- average fluorescence signal for the last 100 s, was taken for the calculations. […] Data sets were analyzed by unpaired Student's t-test. n.s. non-significant with P=0.59 for Dan, **, P<0.01 with P=0.003 for S36, and *, P<0.05 with P=0.019 for GM1869; (D, E, F) Relative changes in the decay time tau of Ca2+ transients from spontaneous Ca2+ waves (in control/drug) by Dan (D, 10µM), S36 (E, 10 µM), and GM1869 (F, 10 µM) in cardiomyocytes from WT and RyR2R2474S/+ mice. […] Rise times represent the tau values calculated by a mono-exponential fit of the Ca2+ transients from start to the peak of the signal. Ca2+ transients were recorded in control conditions and every 2 min (S36) or 4 min (GM1869) after drug application. **, P = 0.0065 for S36; ****, P = 0.000019 for GM1869, evaluated by paired Student's t-test. […] Decay times represent the tau values calculated by a mono-exponential fit of the Ca2+ transients from half maximum to baseline of the signal. […]"}, "[2]": {"system": "saponin-permeabilized ventricular cardiomyocytes (sp-vCM) from RyR2R2474S/+ mice", "assay": "Ca2+ wave decay in saponin-permeabilized ventricular cardiomyocytes, RyR2R2474S/+ mice", "conditions": "10 µM, result in words", "source_text": "as §1"}}, "data": [{"smiles": "O=C1CN(/N=C/c2ccc(-c3ccc([N+](=O)[O-])cc3)o2)C(O)=N1", "note": "[dantrolene]", "values": [{"measurement": "effect on [Ca^2+]ER (R-CEPIA1er fluorescence), in words", "setting": "WT RyR2", "value": "increase in R-CEPIA1er fluorescence"}, {"measurement": "Relative changes in the decay time tau of Ca2+ transients from spontaneous Ca2+ waves (in control/drug)", "setting": "[1]", "value": "significantly above 1"}, {"measurement": "Relative changes in the decay time tau of Ca2+ transients from spontaneous Ca2+ waves (in control/drug)", "setting": "[2]", "value": "significantly above 1"}]}]}
